Each structure is given as a SMILES string. Read-outs that look alike come from different tables or passages of the source.

Data set [1] in a line: Pharmacokinetic study of oral dasatinib with and without TQ pretreatment, plasma UHPLC-MS/MS, non-compartmental analysis. It counts as in vivo, Wistar rats. Conditions: rats. Here is the method:
(§1) The adult male Wistar rats (204-226 g) were procured from the College of Pharmacy Animal Care and Use Facility, King Saud University, Riyadh, Saudi Arabia. The animals were hold in polycarbonate rat cages, with 12h light/dark cycle at 25 ± 2 °C. All groups were allowed ad libitum before the study. This study was conducted following the ethical guidelines approved by the facility and the study was approved by the King Saud University College of Pharmacy Research Ethics Committee (KSU-SE-21-58). Overnight fasted animals (n=24) were divided into four groups (n=6 per group). Group I (normal controls) and Group II were administered normal saline by oral gavage for seven consecutive days. On the seventh day, Group II received a single dose of DAS (25 mg/kg, p.o.) via oral gavage. Group III received TQ (40 mg/kg, p.o.) via oral gavage for seven days, and two hours after the final TQ dose, DAS (25 mg/kg, p.o.) was administered by oral gavage. Group IV received TQ (40 mg/kg/day) by oral gavage for seven consecutive days. For the PK study, blood samples were collected via a tail vein in heparinized vacutainers at various time intervals (i.e., 0, 0.5, 1, 2, 4, 6, 8, 10, 12 h post DAS dosing). The collected blood was centrifuged at 3000 ×g for 10 minutes to separate the plasma, which was then collected and stored in Eppendorf tubes for UHPLC-MS/MS analysis. After completion of the study, the animals were euthanized, and liver and lumen tissues were collected for Western blot analysis. DAS concentrations in plasma samples were determined using an UHPLC-MS/MS method according to a previously described method. Briefly, DAS and ibrutinib (IBR;(internal standard, IS) were separated on an Acquity BEH C18 column. Prior to sample analysis, the method underwent validation for precision and accuracy. A non-compartmental analysis was empoyed to calculate the PK parameters of DAS using the PK Solver software (version 1.01).
(§2) All data are expressed as the mean ± SEM. The pharmacokinetic and protein expression data were compared using one-way analysis of variance followed by Dunnett's test and a p value of ≤0.05 was used for statistical significance.

Another data set relates to CYP3A2. The data set is described as follows: Western blot of CYP3A2 protein expression in liver and lumen tissues. Conditions: for Elevation of CYP3A2 protein expression: DAS 25 mg/kg p.o. vs normal controls; for Suppression of CYP3A2 upregulation: TQ 40 mg/kg p.o. seven days in DAS-treated rats vs DAS group. It counts as in vivo, Wistar rats. As for the experimental part:
as §1, with “On the seventh day, Group II received a single dose of DAS (25 mg/kg, p.o.) via oral gavage. Group III received TQ (40 mg/kg, p.o.) via oral gavage for seven days, and two hours after the final TQ dose, DAS (25 mg/kg, p.o.) was administered by oral gavage.” left out, “For the PK study, blood samples were collected via a tail vein in heparinized vacutainers at various time intervals (i.e., 0, 0.5, 1, 2, 4, 6, 8, 10, 12 h post DAS dosing).” left out, “DAS concentrations in plasma samples were determined using an UHPLC-MS/MS method according to a previously described method.” left out, “1.01). The liver and intestine tissues were homogenized in RIPA lysis buffer and incubated for 30 minutes, followed by centrifugation at 10,000 rpm for 20 minutes at 4 °C. The supernatants were then collected and stored at -20 °C. Total protein content was determined using the bicinchoninic acid (BCA) assay. Protein expression of CYP3A2, Pgp, and BCRP proteins were analyzed according to previously published methods, [17], [34], [35]. All data are expressed as the mean ± SEM.” for “1.01).”
A general note: Immunoblotting shows a protein as a band on a membrane.

A further data set has as its system Pgp. Briefly: Western blot of Pgp protein expression in liver and lumen tissues. It counts as in vivo, Wistar rats. Conditions: for Increase of Pgp expression: DAS 25 mg/kg p.o. vs untreated animals; for Suppression of Pgp expression: TQ pretreatment in DAS-treated rats vs DAS group. Here is the method: as §1
(§3) The liver and intestine tissues were homogenized in RIPA lysis buffer and incubated for 30 minutes, followed by centrifugation at 10,000 rpm for 20 minutes at 4 °C. The supernatants were then collected and stored at -20 °C. Total protein content was determined using the bicinchoninic acid (BCA) assay. Protein expression of CYP3A2, Pgp, and BCRP proteins were analyzed according to previously published methods, [17], [34], [35].
as §2

A further data set relates to rats. Conditions: 30 mg/kg, no reference given; cited from earlier work.
The subject of another data set is BCRP. The data set is described as follows: Western blot of BCRP protein expression in liver and lumen tissues. It counts as in vivo, Wistar rats. Conditions: for Induction of BCRP protein expression: oral DAS vs untreated animals; for Inhibition of BCRP protein expression: TQ pretreatment in the DAS treatment group. As for the experimental part: as §1, §3, §2
For another data set, the system named is wistar rats. On the set-up: method as in PMID 23440704, PMID 32273798. The note with it: ref [46], [47], cited from earlier work.
[2] abbreviates: DAS 25 mg/kg p.o. alone, mean ±SEM.
Where [3] appears, read: DAS+TQ vs DAS alone, positive = increase.
The mark [4] stands for this setting: TQ pretreatment vs control (DAS alone), given as decrease.
Where [5] appears, read: male, Wistar, rat, plasma, po, DAS 25 mg/kg p.o. alone, mean ±SEM.

As to `Cc1nc(Nc2ncc(C(=O)Nc3c(C)cccc3Cl)s2)cc(N2CCN(CCO)CC2)n1` [DAS, Dasatinib], in data set [1] (setting [2]), the “AUMC0-∞” value was determined as 29259.52 ±3397.55 ng/ml*h^2, the CL was 0.01 ±0.00 (mg/kg)/(ng/ml)/h and the Vd is on record as 0.11 ±0.00 (mg/kg)/(ng/ml). In data set [1] (setting [3]), the “% Change in AUC0-t of DAS” value was found to be 166.53%, the “% Change in AUMC0-∞ of DAS” value turned out to be 0.34%, the “% Change in Cmax of DAS” value was 213.26% and the “% Change in Kel of DAS” value is 93.85%. In data set [1] (setting [3]), the “% Change in Tmax of DAS” value is 83.33%. For the same molecule, in data set [1] (setting [4]), the “Decrease (reduction) in CL of DAS” value was 36.35%, the “Decrease (reduction) in Vd of DAS” value is listed as 67.70% and the “Decrease in MRT of DAS” value is given as 49.12%. Moreover, in data set [1] (setting [5]), the total exposure AUC(0-inf) – broadly, total exposure, with the tail of the curve extrapolated – came out at 2500 ± 113 ng·h/mL; the area under the curve AUC(0-t) (in general, exposure summed from dosing to a finite time, without extrapolation to infinity) amounted to 1610 ± 28.9 ng·h/mL; the Cmax (usually the peak of the concentration-time curve) was found to be 246 ± 3.34 ng/mL; the MRT (usually a mean duration of stay, worked out from the concentration-time curve) is 11.5 ± 0.81 h. For the same molecule, in data set [1] (setting [5]), the half-life (in general, the time in which the quantity being followed falls by half) is 466 ± 39 min and the k el is 2.5e-05 s⁻¹. The “Elevation of CYP3A2 protein expression” value in the data set with CYP3A2 (liver) was found to be 91.84%. In addition, in the data set on CYP3A2 (lumen), the “Elevation of CYP3A2 protein expression” value is reported as 93.47%. Also, the “Increase of Pgp expression” value in the data set with Pgp (liver) turned out to be 75.62%. Also, in the data set on Pgp (lumen), the “Increase of Pgp expression” value amounted to 77.19%. Moreover, the “Tolerability in acute toxicity studies” value in the data set on rats is listed as “well tolerated”. Besides, the “Induction of BCRP protein expression” value in the data set with BCRP (liver) turned out to be 74.82%. Moreover, in the data set on BCRP (lumen), the “Induction of BCRP protein expression” value stood at 76.05%.
Regarding `CC1=CC(=O)C(C(C)C)=CC1=O` [TQ, 2-Methyl-5-(propan-2-yl)cyclohexa-2,5-diene-1,4-dione], the “Effect on CYP3A2 expressions” value with CYP3A2 (TQ alone 40 mg/kg/day seven days vs normal controls) is given as “did not significantly altered”. Also, the “Suppression of CYP3A2 upregulation” value in the data set with CYP3A2 (liver) is recorded as 53.98%; in the data set on CYP3A2 (lumen), 40.30%. Further, the “Effect on liver and lumen Pgp protein expressions” value with Pgp (TQ pretreatment alone vs untreated animals) is “did not affect”. In addition, the “Suppression of Pgp expression” value with Pgp (liver) was determined as 47.97%; with Pgp (lumen), 37.72%. Further, the “maximum tolerated dose (MTD)” value with wistar rats (i.p. injection, female rats) is recorded as 15 mg/kg; in the data set on wistar rats (i.p. injection, male rats), 22.5 mg/kg; in the data set with wistar rats (oral, both male and female rats), 250 mg/kg. Besides, the “Effect on liver and lumen BCRP protein levels” value with BCRP (TQ treatment alone vs normal controls) was “no significant changes”. The entries for the “Inhibition of BCRP protein expression” value in the data set with BCRP (liver) and in the data set on BCRP (lumen) were 50.48% and 48.46%, respectively.

(Values after publication PMC12492365, “Drug Interaction of Dasatinib with Thymoquinone: A Pharmacokinetic Study in Rats” (International Journal of Medical Sciences, 2025).)
